Assay results taken from ChEMBL document CHEMBL3044562, “Survival and developmental impairment induced by the trypsin inhibitor bis-benzamidine in the velvetbean caterpillar (Anticarsia gemmatalis)” (Crop Prot, 2011).
Calls of active or inactive are those of the source.

Experiments:
Format in all cases: functional, organism-based
Anticarsia gemmatalis [1] = assay: Insecticidal activity against Anticarsia gemmatalis (velvetbean caterpillar) assessed as reduction in survival time at over 150 ppm
Anticarsia gemmatalis [2] = assay: Insecticidal activity against Anticarsia gemmatalis (velvetbean caterpillar) assessed as reduction in survival time at > 100 ppm
Anticarsia gemmatalis [3] = assay: Insecticidal activity against Anticarsia gemmatalis (velvetbean caterpillar) assessed as specific amidolytic and esterolytic activity in midgut at 9.5 ppm
Anticarsia gemmatalis [4] = assay: Insecticidal activity against Anticarsia gemmatalis (velvetbean caterpillar) assessed as sharp decline in proteolytic activity in midgut using L-BApNA and L-TAME at 9.5 ppm
Anticarsia gemmatalis [5] = assay: Increase in protein digestibility in Anticarsia gemmatalis (velvetbean caterpillar) assessed as double the consumption at 76 ppm
Anticarsia gemmatalis [6] = assay: Effect on diet consumption in Anticarsia gemmatalis (velvetbean caterpillar) assessed as double the consumption at 76 ppm relative to control
Anticarsia gemmatalis [7] = assay: Insecticidal activity against Anticarsia gemmatalis (velvetbean caterpillar) assessed as decrease in pupa weight upto 80 ppm
Anticarsia gemmatalis [8] = assay: Insecticidal activity against Anticarsia gemmatalis (velvetbean caterpillar) assessed as prolongation of larval development upto 76 ppm
Anticarsia gemmatalis [9] = assay: Insecticidal activity against Anticarsia gemmatalis (velvetbean caterpillar) assessed as reduction in survival at > 76 ppm for more than 15 days

N=C(N)c1ccc(/N=N/Nc2ccc(C(=N)N)cc2)cc1
active: inhibition (Anticarsia gemmatalis [1]) | inhibition (Anticarsia gemmatalis [2]) | inhibition (Anticarsia gemmatalis [3]) | inhibition (Anticarsia gemmatalis [4]) | Activity (Anticarsia gemmatalis [5]) | Activity (Anticarsia gemmatalis [6]) | inhibition (Anticarsia gemmatalis [7]) | Activity (Anticarsia gemmatalis [8]) | inhibition (Anticarsia gemmatalis [9])
